Laboratory results taken from US20090181438A1, “OPTIMIZATION OF BIOFUEL PRODUCTION” (THE OHIO STATE UNIVERSITY RESEARCH FOUNDATION, priority 2007, published 2009).

Columns and labels:
[1] = tested on: Nannochloropsis sp. cultures
Protocol: Variable fractions (0, 10%, 25%, and 50%) of identical 100 mL Nannochloropsis sp. cultures (n=2) were initially (arrows) mixed (15 min) with decane and exposed to an ultrasonic field (2 sec; 40 kHz water bath), decanted of solvent, then grown (F/2, 23° C., 24:0 of 100 μmol, 100 rpm, 33 ppt, 100 mL in 500 mL flasks). Further, variable timed treatments (arrows) at log-phase and stationary phases were also completed.

Nannochloropsis sp. = assay type: cell-based
Protocol: Under simulated outdoor growing conditions (30 ppt, 26-37° C., 14:10 of 1000 umol, F/2) 12 liter aquaria of Nannochloropsis sp., equipped with mixers and pH controlled (˜7.2) CO2 gas input, had 25% of culture volume removed daily which was variably (0-25% of total fraction) extracted of lipids with decane (15 min) and sonic (2 sec) energy, decanted of solvent, then returned to culture, while the remaining untreated fraction (0-25%) was removed, dried and extracted with hexane.

[2] = tested on: cultures of Botryococcus braunii; conditions: cited from earlier work

Structure (SMILES) | growth rate and resultant algal biomass compared to no treatment [1] | growth rates and resultant culture biomass (Nannochloropsis sp.) | tolerance of daily exposure to treatment (Nannochloropsis sp.) | solvent toxicity / biocompatibility [2]
CCCCCCCCCC [decane] | can positively affect growth rate and resultant algal biomass | augment growth rates and the resultant culture biomass | tolerated | 
CCCCCCC [heptane] |  |  |  | nontoxic
CCCCCC [hexane] |  |  |  | nontoxic
CCCCCOCCCCC [dipentyl ether] |  |  |  | toxic
CCCCCCCCCCO [decanol] |  |  |  | toxic
